Test results published in patent US20240041875A1 (priority 2022, published 2024).

Legend:
VSV-SARS-CoV-2 [1] = assay type: cell-based
VSV-SARS-CoV-2 [2] = assay type: cell-based; remark: listed apart in the source
SARS-CoV-2 = assay type: cell-based
A549-ACE2 cells = experiment: Cytotoxicity to A549-ACE2 cells, CellTiter-Glo Assay; assay type: cell-based, human; details: 0.1625 nM to 2.5 nM, 24 h
Description: FIG. 6. Ponatinib cytotoxicity to A549-ACE2 cells at the concentration range of 0.1625 nM to 2.5 nM). A549-ACE2 cells were treated with ponatinib for 24 h and the cell viability was detected by CellTiter-Glo Assay.

SARS-CoV-2 WT strain = test system: SARS-CoV-2 WT strain; set-up: species or system K18-hACE2 mice; details: mouse, in vivo

Structure (SMILES) | inhibition of viral infection / plaque formation, side-by-side comparison (VSV-SARS-CoV-2 [1]) | screening outcome, inhibition of infection by VSV-SARS-CoV-2 (VSV-SARS-CoV-2 [2]) | inhibition of VSV-SARS-CoV-2 infectivity (VSV-SARS-CoV-2 [1]) | inhibition of VSV-SARS-CoV-2 under four treatment conditions (concomitant, virus pre-incubated, cells pretreated, treatment after infection) (VSV-SARS-CoV-2 [1]) | reduction of viral infection by live SARS-CoV-2 (plaque assay) (SARS-CoV-2) | A549-ACE2 cell viability (A549-ACE2 cells) | body weight of infected mice (SARS-CoV-2 WT strain) | expression of SARS-CoV-2 nucleocapsid protein (NP) in lung tissues (IHC) (SARS-CoV-2 WT strain) | survival of infected mice (SARS-CoV-2 WT strain) | survival of infected mice at different doses (SARS-CoV-2 WT strain) | viral RNA copies in the lung (quantitative real-time PCR) (SARS-CoV-2 WT strain) | viral titer in the lung (plaque assay) (SARS-CoV-2 WT strain)
Cc1ccc(C(=O)Nc2ccc(CN3CCN(C)CC3)c(C(F)(F)F)c2)cc1C#Cc1cnc2[nH]ncc2c1 [olverembatinib] | not olverembatinib treatment inhibited plaque formation |  |  |  |  |  |  |  |  |  |  | 
Cc1ccc(C(=O)Nc2ccc(CN3CCN(C)CC3)c(C(F)(F)F)c2)cc1C#Cc1cnc2cccnn12 [ponatinib] | inhibited plaque formation | several candidates including ponatinib | significantly inhibited VSV-SARS-CoV-2 in a dose-dependent manner | could inhibit VSV-SARS-CoV-2 under all these conditions | significantly reduced viral infection | no effect on A549-ACE2 cell viability | two of the five mice treated with ponatinib started to regain body weight on day 7 | markedly lower | lived significantly longer than the control group | Dose-dependent effect | much lower than in the PBS group | significantly decreased the viral load in the lung
